87 compounds from a melting point compilation (Tetko et al.; mined from patent text by program, amines drawn as free bases though some values may be those of a salt) can be followed below.

One may read the melting point as the temperature, or range, at which the solid turns liquid. For the compound `CCOc1ccc2c(c1)c(CC(C)NC(=O)OC(C)(C)C)c1n2CCC1` (configuration not stated), the melting point is 89 to 90 °C.

`COc1cc(Nc2c(C#N)cnc3cc(-c4ccc(C=O)cc4)ccc23)c(Cl)cc1Cl`: the melting point lay in the range of 248 to 251 °C.

For the compound `CCOC(=O)c1cnn(C)c1NC(=O)Nc1ccccc1`, the melting point fell in the range of 151 to 153 °C.

`O=C(Nc1cnc2c(c1)nc1n2CCCC1)c1cc2cc(C(F)(F)F)ccc2n1Cc1cccc(F)c1` yielded a melting point of 262 to 263 °C.

Turning to `Cc1cc2ncc(Cl)nc2cc1C`, the melting point came out at 103 °C.

Compound `CC(=O)Nc1ccccc1C=C1c2ccccc2CCc2ccccc21` registered a melting point of 190 °C.

Consider `CCOC(=O)C(SC)C(=O)Nc1ccc(Br)cc1C` (configuration not stated), for which the melting point was in the range of 85 to 88 °C.

In turn, `COc1ccc(-n2c(-c3sc(Nc4ccccc4)nc3C)nc3ccccc3c2=O)cc1` registered a melting point of 265 to 266 °C.

As to `CCOC(=O)c1cn(Cc2ccc(OCc3ccccc3)cc2)nc1-c1ccc(F)cc1`, the melting point is 103 to 104 °C.

As to `Cn1c(C=O)c(-c2ccc(F)cc2)c2ccccc21`, the melting point was 75 to 79 °C.

As for `CCOC(=O)c1cc2c3n(ccc-2n1)CC(C)=N3`, the melting point lay within 201 to 203 °C.

`COC(=O)Cc1ccc(C(C)=O)s1` returned a melting point of 43 to 44 °C.

Turning to `Nc1ccc2c(C(F)(F)F)cc(C(F)(F)F)nc2n1`, the melting point lay within 198 to 204 °C.

`CC(C)n1nc(-c2c(-c3ccccc3)nn3ccc(Oc4ccncc4)cc23)ccc1=O`: the melting point fell in the range of 218 to 220 °C.

`Cc1cc(C)cc(Oc2c(C(C)C)c(=O)[nH]c(=O)n2CC2CCCC2)c1` showed a melting point of 157 to 158 °C.

In turn, `O=C1c2cc(Cl)ccc2-n2cnc(-c3noc(CCl)n3)c2[C@@H]2CCN12` displayed a melting point of 238 to 241 °C.

In turn, `Nc1ncnc2c1c(-c1ccc(NS(=O)(=O)c3ccccc3)c(O)c1)cn2C1CCCC1` gave a melting point of 265 to 267 °C.

On to `CS(=O)(=O)OCCc1ccc(NC(=O)OCc2ccccc2)cc1CCOS(C)(=O)=O`, for which the melting point lay in the range of 58 to 60 °C.

Compound `CC(O)c1sc(S(N)(=O)=O)cc1S(C)(=O)=O` (configuration not stated) returned a melting point of 121 to 127 °C.

For the compound `CC1CC(NC(=O)c2ccccc2SC#N)CC(C)(C)C1` (configuration not stated), the melting point was 117 °C.

As to `CCOC(=O)C(=CNc1ncc(OC)c2ccccc12)C(=O)OCC`, the melting point was in the range of 150 to 153 °C.

In the case of `CN1CCN(C)C1=Nc1ccccc1CN1CCOCC1`, the melting point fell in the range of 56 to 58 °C.

As to `CC(C)(C)C(=O)Nc1ccccc1-c1cc2ccccc2[nH]1`, the melting point lay within 132 to 136 °C.

Regarding `CCOc1ccc(NC(=O)NCCCOc2cccc(CN3CCCCC3)c2)cc1`, the melting point lay within 109 to 111 °C.

With `CC(=O)Nc1ccc(-c2ccccc2)cc1[N+](=O)[O-]`, the melting point lay in the range of 128 to 131 °C.

In the case of `O=C(O)CCC(=O)N1CCc2cc(S(=O)(=O)N3CCN(c4ccc(C(=O)O)cc4)CC3)ccc21`, the melting point is 255 to 257 °C.

Take `O=c1cc(Cc2c[nH]c3ccccc23)[nH]n1C1CCCCC1`: the melting point is 192 to 194 °C.

Take `CCCn1cc2c(C3C(=O)Nc4ccc(C#N)cc43)nc(NCc3ccncc3)nc2n1` (configuration not stated): the melting point is 299 to 302 °C.

Regarding `COC(=O)COc1ccc([N+](=O)[O-])cc1`, the melting point was 98 to 99 °C.

On to `CSc1nc(CC2CCN(c3ccccc3)CC2)nc(C(=O)NCC(=O)O)c1O`, for which the melting point lay within 156 to 157 °C.

`Cc1cc(C)n(-c2nc(Nc3ccc(N4CCOCC4)cc3)c3ccccc3n2)n1` registered a melting point of 268 to 270 °C.

For `CCOc1ccc(S(C)(=O)=O)cc1C(=O)O`, the melting point was in the range of 139 to 141 °C.

Regarding `Cn1ccc2cc(NC(=O)Nc3cccc4cccnc34)ccc21`, the melting point was in the range of 205 to 209 °C.

Compound `COC(=O)c1ccc2c(c1)C(SCCI)c1ccccc1CO2` (configuration not stated) came in with a melting point of 111 to 113 °C.

In turn, `COC(=O)CC(NCc1ccccc1)=C(C(=O)OC)C(=O)C(F)(F)F` had a melting point of 89.5 to 90.5 °C.

Take `FC(F)(F)c1cc(CO[C@@H]2CCCN(Cc3nnn[nH]3)[C@@H]2c2ccccc2)cc(C(F)(F)F)c1` (relative stereo): the melting point is 114 to 115 °C.

For `CCOC(=O)c1cnn(-c2ccccn2)c1Cl`, the melting point was in the range of 50 to 51 °C.

`O=C(Nc1ccc(C(=O)N2CCc3cn[nH]c3-c3ccccc32)cn1)c1ccccc1-c1ccccc1` yielded a melting point of 228 to 234 °C.

`CN1CCC2(CC1)NCc1cc(C(C)(C)C)cc(I)c1O2` gave a melting point of 155 to 156 °C.

Compound `COc1ccc2oc(C(=O)OCC(C)(C)C(O)C(C)(C)C)cc2c1` (configuration not stated) registered a melting point of 114 °C.

`CCCCCCCCCCCCCCCCOc1cc(NS(=O)(=O)c2cc([N+](=O)[O-])ccc2OCCOC)c(O)cc1C`: the melting point was 85.5 to 86 °C.

For `Cc1cc(C(=O)NS(=O)(=O)Cc2ccccc2C(F)(F)F)nc(Cl)n1`, the melting point lay in the range of 198 to 199 °C.

Regarding `COc1ccccc1Oc1c(NS(=O)(=O)c2ccc3ccccc3c2)nc(N2CCOCC2)nc1OCCOc1ncc(Br)cn1`, the melting point was in the range of 178 to 182 °C.

`COC(=O)C1=C(C)NC(=O)NC1c1cccc(N)c1` (configuration not stated) gave a melting point of 222 to 234 °C.

Regarding `CCn1ncc(C(=O)c2ccc(S(C)(=O)=O)c(C3=NOCC3)c2C)c1OCC(=O)c1ccccc1`, the melting point lay within 177 to 179 °C.

`CN1CC(=O)Nc2ccncc2C1=O` showed a melting point of 267 to 268 °C.

`COc1cc2cc(N)cnc2cc1F` gave a melting point of 153 °C.

`CC(=O)OCCN1CN(C)C(=S)N(c2ccc(C)cc2C)C1` displayed a melting point of 80 to 83 °C.

With `COCOc1cc(F)ccc1-c1cc(-c2cccc(C(=O)O)c2)c(C#N)c(NC(=O)c2ccco2)n1`, the melting point is 254 °C.

In the case of `COc1nc2ccc(Br)cc2c2c1C(=O)c1ccccc1-2`, the melting point lay within 208 to 210 °C.

Take `O=[N+]([O-])c1ccc(Oc2ccc3c(c2)OCCC3Cl)cc1` (configuration not stated): the melting point is 67 to 68 °C.

Compound `CCCCOc1n[nH]c(=O)n1C` showed a melting point of 77 °C.

Compound `O=C(/C=C/c1ccc(F)cc1)c1cnc2sc3c(n12)CCCCC3` registered a melting point of 187 to 188 °C.

Compound `CCCCCCCN(Cc1ccc(C(C)(C)C)cc1)C(Nc1c(C)cc(C)cc1C)=C1C(=O)COC1=O` yielded a melting point of 141 to 143 °C.

The compound `Cc1cc(C(=O)N2Cc3ccc(C(=O)NCc4cccnc4)n3Cc3ccccc32)ccc1-c1ccccc1` registered a melting point of 108 to 112 °C.

Take `CC(O)C1CCC2C3CCC4=CC(=O)CCC4(C)C3CCC12C` (configuration not stated): the melting point was 163 to 166 °C.

Turning to `Cc1ccc(NP(N)(N)=O)c([N+](=O)[O-])c1`, the melting point is > 180 °C.

`CN1CCN(C2CC3C4CCC5CC(O)C(N6CCC(O)CC6)CC5(C)C4CCC3(C)C2O)CC1` (configuration not stated) had a melting point of 248 to 250 °C.

`COc1cc(-c2cccc(Cl)c2)c2cc(C(O)(c3ccc(Cl)cc3)c3nncn3C)ccc2n1` (configuration not stated): the melting point came to 155 °C.

In turn, `COc1ccc2c(c1)OCN(CCO[N+](=O)[O-])C2=O` came in with a melting point of 97 to 99 °C.

In turn, `COc1ccc(-c2cc(CO)c(C)o2)cc1` registered a melting point of 62 to 64 °C.

Consider `CCCCCCC(NS(=O)(=O)c1ccc(Cl)cc1)C(=O)Nc1ccc(CC(=O)OCC)cc1` (racemic), for which the melting point is 110 to 112 °C.

With `COCc1cc2c(s1)CCc1cc(=O)n(-c3ccc(Cl)cc3)nc1-2`, the melting point lay in the range of 159 to 160 °C.

`O=[N+]([O-])C(=Cc1cccs1)C1=NCCN1Cc1ccc(Cl)nc1` had a melting point of 189 to 190 °C.

Consider `O=C1COc2cc(Oc3ccc(O)cc3)ccc2N1`, for which the melting point lay in the range of 250 to 251 °C.

Turning to `COC(=O)N(C)c1cccc(C(=O)C=CN(C)C)c1`, the melting point was in the range of 93 to 95 °C.

The compound `CC(=O)Nc1nc(NC(C)=O)nc(-c2ccc(Oc3ccccc3)cc2)n1` displayed a melting point of 243 to 245 °C.

As to `CCCCCN1C(=O)C(CO)(c2cc3c(cc2O)OCO3)c2ccccc21` (configuration not stated), the melting point fell in the range of 125 to 127 °C.

In turn, `CCOC(=O)c1ccc(NC(=N)c2ccc(OC)cc2)cc1` registered a melting point of 128 to 132 °C.

In turn, `O=C(NCCCO)c1ccc[nH]1` yielded a melting point of 71 to 73 °C.

The compound `C=C1CCCC2CCC3C(CCC4(C)C3C(C#N)C35OCCOC43OCCO5)C12C` (configuration not stated) came in with a melting point of 229 °C.

As for `CCC(C)c1cc(Cl)cc(Cl)c1OCC(=O)N1CCSC1=S` (configuration not stated), the melting point came out at 96 °C.

`COC(=O)c1cccc2nc(N3CCCCC3)n(Cc3ccc(-c4ccccc4C#N)cc3)c12` had a melting point of 119 to 121 °C.

In turn, `O=C(NC(Cc1ccc(OCc2cccc(F)c2)cc1)C(=O)O)c1cn2ccc(-c3ccc(Cl)cc3)cc2n1` (configuration not stated) registered a melting point of 248 to 250 °C.

Take `CCCCc1nc(Cl)c(COC)n1Cc1ccc(-c2ccccc2Cc2nnn[nH]2)cc1`: the melting point was in the range of 149 to 152 °C.

Turning to `O=C1CCC(N2Cc3cc(CNC(=O)Nc4ccc(Br)cc4)ccc3C2=O)C(=O)N1` (configuration not stated), the melting point lay in the range of 278 to 280 °C.

The compound `CCOC(=O)N1CCc2nc3ccccc3c(C)c2CC1` displayed a melting point of 125 °C.

Regarding `O=C1c2ccccc2-c2c1c1ccccc1c(=O)n2C1CC1`, the melting point is 206 to 208 °C.

Take `C1=C(c2nc(COc3ccc(CCCCn4cncn4)cc3)co2)CCc2ccccc21`: the melting point was in the range of 96 to 97 °C.

Consider `COc1ccc(-c2cnc(SC(F)(F)C(F)F)nc2-c2ccc(OC)cc2)cc1`, for which the melting point lay within 118 to 120 °C.

`CCCCc1ncc2ccccc2c1Cc1ccc(C(=O)O)cc1`: the melting point was found to be 212 °C.

Regarding `CNC(=Nc1ccccc1N1CCCCC1)C(C)(C)C`, the melting point is 78 °C.

`CCCCOCCOc1ccc(-c2ccc3c(c2)C=C(C(=O)Nc2ccc(SCc4nncn4CCC)c(C(F)(F)F)c2)CCN3CC(C)C)cc1` showed a melting point of 131 to 133 °C.

For `CC(C)(C)C(=O)c1c[nH]c2ncc(C3CC3)nc12`, the melting point was 266 to 268 °C.

For the compound `CC(C)(N)[C@@H]1CCN(c2cc3c(c(N)c2F)c(=O)c(C(=O)O)cn3C2CC2)C1`, the melting point is > 300 °C.

`CC1CC2C3CCC4=CC(=O)CCC4(C)C3(F)C(O)CC2(C)C1C(=O)CC#N` (configuration not stated) displayed a melting point of 224 °C.

For the compound `O=C(c1cc([N+](=O)[O-])cc(C(F)(F)F)c1)c1cc([N+](=O)[O-])cc(C(F)(F)F)c1`, the melting point turned out to be 181 °C.
